Patent US5556744A, “Methods and compositions for diagnosing and treating certain HIV infected patients” (The Trustees of the University of Pennsylvania, priority 1994, dated 1996)

Tested on: maternal HIV+ sera (antibodies)
Test: RIA / ELISA binding of maternal HIV+ sera to gp120 and gp41 peptides (Example 3)
Design: species or system human
In short: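 Maternal sera, diluted 1:50 and 1:500, were bound overnight at 4°C to peptides immobilized at 10 μg/ml (pH 9.6 carbonate) and blocked with 1% BSA. Read-out was ¹²⁵I-labelled anti-human IgG counts or HRP-TMB OD450. Signal with peptide minus without was expressed relative to seronegative serum.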

## TRKSIRIQRGPGRAF [Peptide 107]
Non-transmitter group, n = 13
  Percentage of sera samples demonstrating binding to peptide, non-transmitter: 100%
Serum No. 1, Non-Transmission Group
  Binding of maternal HIV+ serum to peptide (sera/NHS ratio): ++ (which value is greater than 3)
Serum No. 2, Non-Transmission Group
  Binding of maternal HIV+ serum to peptide (sera/NHS ratio): ++ (which value is greater than 3)
Serum No. 3, Non-Transmission Group
  Binding of maternal HIV+ serum to peptide (sera/NHS ratio): ++ (which value is greater than 3)
Serum No. 4, Transmission Group
  Binding of maternal HIV+ serum to peptide (sera/NHS ratio): ++ (which value is greater than 3)
Serum No. 5, Transmission Group
  Binding of maternal HIV+ serum to peptide (sera/NHS ratio): ++ (which value is greater than 3)
Serum No. 6, Non-Transmission Group
  Binding of maternal HIV+ serum to peptide (sera/NHS ratio): ++ (which value is greater than 3)
Serum No. 7, Non-Transmission Group
  Binding of maternal HIV+ serum to peptide (sera/NHS ratio): + (which value is between 2 to 3)
Serum No. 8, Non-Transmission Group
  Binding of maternal HIV+ serum to peptide (sera/NHS ratio): ++ (which value is greater than 3)
Serum No. 9, Non-Transmission Group
  Binding of maternal HIV+ serum to peptide (sera/NHS ratio): ++ (which value is greater than 3)
Serum No. 10, Transmission Group
  Binding of maternal HIV+ serum to peptide (sera/NHS ratio): + (which value is between 2 to 3)
Serum No. 11, Non-Transmission Group
  Binding of maternal HIV+ serum to peptide (sera/NHS ratio): ++ (which value is greater than 3)
Serum No. 12, Non-Transmission Group
  Binding of maternal HIV+ serum to peptide (sera/NHS ratio): ++ (which value is greater than 3)
Serum No. 13, Transmission Group
  Binding of maternal HIV+ serum to peptide (sera/NHS ratio): ++ (which value is greater than 3)
Serum No. 14, Transmission Group
  Binding of maternal HIV+ serum to peptide (sera/NHS ratio): ++ (which value is greater than 3)
Serum No. 15, Transmission Group
  Binding of maternal HIV+ serum to peptide (sera/NHS ratio): - (specific OD450 or cpm of sera sample binding to peptide divided by the specific OD450 or cpm of NHS sample binding to peptide, which value is less than 2)
Serum No. 16, Non-Transmission Group
  Binding of maternal HIV+ serum to peptide (sera/NHS ratio): ++ (which value is greater than 3)
Serum No. 17, Non-Transmission Group
  Binding of maternal HIV+ serum to peptide (sera/NHS ratio): ++ (which value is greater than 3)
Serum No. 18, Non-Transmission Group
  Binding of maternal HIV+ serum to peptide (sera/NHS ratio): ++ (which value is greater than 3)
Serum No. 19, Transmission Group
  Binding of maternal HIV+ serum to peptide (sera/NHS ratio): ++ (which value is greater than 3)
Serum No. 20, Non-Transmission Group
  Binding of maternal HIV+ serum to peptide (sera/NHS ratio): ++ (which value is greater than 3)
Transmitter / transmission group, n = 7
  Percentage of sera samples demonstrating binding to peptide, transmitter: 85.7%
All 20 samples
  Percent of the maternal serum samples that bound to the peptide: 95%
